Here are results for twelve compounds from patent publication US20250326744A1, “PIPERAZINE DERIVATIVE OR SALT THEREOF, AND PHARMACEUTICAL COMPOSITION” (priority 2022, published 2025).

Where a name gives a salt, the structure may show the parent alone.

For one experiment, the system named is mexB (PA) strain. Put plainly: Combinational effect with antibacterial agent against Pseudomonas aeruginosa (Test Examples 2 and 4): mexB (PA) strain with LVFX, TC or AZT at 1/4 MIC, EC99. To be noted: for EC99, mexB (PA), AZT / EC99, mexB (PA), LVFX / EC99, mexB (PA), TC: Table 52, Test Example 2, 16 to 20 hours culture, OD595; for EC99, mexB (PA), AZT / EC99, combinational effect with AZT, mexB (PA): combined with AZT at 1/4 MIC; for EC99, mexB (PA), LVFX / EC99, combinational effect with LVFX, mexB (PA): combined with LVFX at 1/4 MIC; for EC99, mexB (PA), TC / EC99, combinational effect with TC, mexB (PA): combined with TC at 1/4 MIC; for EC99, combinational effect with AZT, mexB (PA) / EC99, combinational effect with LVFX, mexB (PA) / EC99, combinational effect with TC, mexB (PA): mexB (PA) strain, Test Example 4. In kind it is cell-based. A digest of the protocol:
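P. aeruginosa mexB (PA) strain, lacking MexCD-OprJ, MexEF-OprN and MexXY and overexpressing MexAB-OprM, grown 16–20 h in CAMHB (10^4–5 CFU/well) with LVFX, TC or AZT at ¼ MIC plus test compound at 0–800 μM. Growth read as OD595; EC99 is the lowest compound concentration giving ≥99% growth inhibition.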

A further experiment relates to S-3769 strain. Put plainly: Combinational effect with antibacterial agent against Pseudomonas aeruginosa (Test Examples 2 and 4): S-3769 strain with AMK or GM at 1/4 MIC, EC99. Format: cell-based. To be noted: for EC99, S-3769 strain, AMK / EC99, S-3769 strain, GM: Table 52, Test Example 2, 16 to 20 hours culture, OD595; for EC99, S-3769 strain, AMK / EC99, combinational effect with AMK, S-3769 strain: combined with AMK at 1/4 MIC; for EC99, S-3769 strain, GM / EC99, combinational effect with GM, S-3769 strain: combined with GM at 1/4 MIC; for EC99, combinational effect with AMK, S-3769 strain / EC99, combinational effect with GM, S-3769 strain: Test Example 4. The method in brief: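 P. aeruginosa S-3769 (clinical isolate, MexY overexpressed) grown 16–20 h in CAMHB, 10^4 to 5 CFU/well, with AMK or GM at ¼ MIC plus test compound 0–800 μM. Growth read as OD595; EC99 is the lowest compound concentration giving ≥99% growth inhibition.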

As for `CCOc1cccc(F)c1CN1CCN(C(=O)[C@H](N)C2CCN(CCc3cc(C(F)(F)F)ccc3-c3ccccc3)CC2)CC1` [Example 83, Hydrobromide of (R)-2-amino-1-(4-(2-ethoxy-6-fluorobenzyl)piperazin-1-yl)-2-(1-(2-(4-(trifuluoromethyl)-[1,1′-biphenyl]-2-yl)ethyl)piperidin-4-yl) ethan-1-one], in the experiment on mexB (PA) strain, the “EC99, mexB (PA), AZT” value is listed as “B (25 μM<EC99≤100 μM)”; the “EC99, mexB (PA), LVFX” value is on record as “B (25 μM<EC99≤100 μM)”; the “EC99, mexB (PA), TC” value is “B (25 μM<EC99≤100 μM)”. For the same compound, in the experiment on S-3769 strain, the “EC99, S-3769 strain, AMK” value is “B (25 μM<EC99≤100 μM)” and the “EC99, S-3769 strain, GM” value is “B (25 μM<EC99≤100 μM)”.
On to `N[C@@H](C(=O)N1CCN(Cc2ccccc2C2CC2)CC1)C1CCN(CCc2cc(Cl)ccc2-c2ccccc2)CC1` [Example 507, Hydrobromide of (R)-2-amino-2-(1-(2-(4-chloro-[1,1-biphenyl]-2-yl)ethyl)piperidin-4-yl)-1-(4-(2-cyclopropylbenzyl)piperazin-1-yl)ethan-1-one], for which, in the experiment with mexB (PA) strain, the “EC99, combinational effect with AZT, mexB (PA)” value (“EC99 … with AZT, mexB (PA)” for short) is reported as “B (25 μM<EC99≤100 μM)”; the “EC99, combinational effect with LVFX, mexB (PA)” value (“EC99 … with LVFX, mexB (PA)” for short) is on record as “B (25 μM<EC99≤100 μM)”; the “EC99, combinational effect with TC, mexB (PA)” value (from here on “EC99 … with TC, mexB (PA)”) is “B (25 μM<EC99≤100 μM)”. Further, in the experiment on S-3769 strain, the “EC99, combinational effect with AMK, S-3769 strain” value (“EC99, combinational effect with AMK” below) is reported as “B (25 μM<EC99≤100 μM)” and the “EC99, combinational effect with GM, S-3769 strain” value (“EC99, combinational effect with GM” for short) is “B (25 μM<EC99≤100 μM)”.
With `CCSc1cc(F)ccc1CN1CCN(C(=O)[C@H](N)C2CCN(CCc3cc(Cl)ccc3-c3ccccc3N)CC2)CC1` [Example 604, Hydrochloride of (R)-2-amino-2-(1-(2-(2′-amino-4-chloro-[1,1-biphenyl]-2-yl)ethyl)piperidin-4-yl)-1-(4-(2-(ethylthio)-4-fluorobenzyl)piperazin-1-yl) ethan-1-one], in the experiment on mexB (PA) strain, the “EC99 … with AZT, mexB (PA)” value is on record as “S (EC99≤12.5 μM)”; the “EC99 … with LVFX, mexB (PA)” value is reported as “S (EC99≤12.5 μM)”; the “EC99 … with TC, mexB (PA)” value was “S (EC99≤12.5 μM)”. Also, in the experiment on S-3769 strain, the “EC99, combinational effect with AMK” value is on record as “A (12.5 μM<EC99≤25 μM)” and the “EC99, combinational effect with GM” value was “A (12.5 μM<EC99≤25 μM)”.
With `CCOc1cccc(F)c1CN1CCN(C(=O)[C@H](N)C2CCN(CCc3cc(C)ccc3-c3ccccc3)CC2)CC1` [Example 81, Hydrobromide of (R)-2-amino-1-(4-(2-ethoxy-6-fluorobenzyl)piperazin-1-yl)-2-(1-(2-(4-methyl-[1,1′-biphenyl]-2-yl)ethyl)piperidin-4-yl)ethan-1-one], in the experiment with mexB (PA) strain, the “EC99, mexB (PA), AZT” value is “B (25 μM<EC99≤100 μM)”; the “EC99, mexB (PA), LVFX” value is reported as “B (25 μM<EC99≤100 μM)”; the “EC99, mexB (PA), TC” value is on record as “B (25 μM<EC99≤100 μM)”. For the same compound, in the experiment with S-3769 strain, the “EC99, S-3769 strain, AMK” value is on record as “S (EC99≤12.5 μM)” and the “EC99, S-3769 strain, GM” value is on record as “S (EC99≤12.5 μM)”.
As to `CCOc1cccc(F)c1CN1CCN(C(=O)[C@H](N)C2CCN(CCc3cc(Cl)ccc3-c3cc(Cl)ccc3O)CC2)CC1` [Example 580, Hydrochloride of (R)-2-amino-2-(1-(2-(4,5′-dichloro-2′-hydroxy-[1,1-biphenyl]-2-yl)ethyl)piperidin-4-yl)-1-(4-(2-ethoxy-6-fluorobenzyl)piperazin-1-yl)ethan-1-one], in the experiment on mexB (PA) strain, the “EC99 … with AZT, mexB (PA)” value was “A (12.5 μM<EC99≤25 μM)”; the “EC99 … with LVFX, mexB (PA)” value is recorded as “S (EC99≤12.5 μM)”; the “EC99 … with TC, mexB (PA)” value is “A (12.5 μM<EC99≤25 μM)”. Further, in the experiment with S-3769 strain, the “EC99, combinational effect with AMK” value was “S (EC99≤12.5 μM)” and the “EC99, combinational effect with GM” value is reported as “A (12.5 μM<EC99≤25 μM)”.
`CCOc1cccc(F)c1CN1CCN(C(=O)[C@H](N)C2CCN(CCc3cc(Cl)ccc3-c3cccc(O)c3Cl)CC2)CC1` [Example 571, (R)-2-amino-2-(1-(2-(2′,4-dichloro-3′-hydroxy-[1,1′-biphenyl]-2-yl)ethyl)piperidin-4-yl)-1-(4-(2-ethoxy-6-fluorobenzyl)piperazin-1-yl)ethan-1-one]: in the experiment with mexB (PA) strain, the “EC99 … with AZT, mexB (PA)” value was “S (EC99≤12.5 μM)”; the “EC99 … with LVFX, mexB (PA)” value is “S (EC99≤12.5 μM)”; the “EC99 … with TC, mexB (PA)” value is “S (EC99≤12.5 μM)”. Besides, in the experiment on S-3769 strain, the “EC99, combinational effect with AMK” value was “S (EC99≤12.5 μM)” and the “EC99, combinational effect with GM” value is reported as “S (EC99≤12.5 μM)”.
`N[C@@H](C(=O)N1CCN(Cc2c(F)cccc2OCC(F)F)CC1)C1CCN(CCc2cc(Cl)ccc2-c2ccccc2)CC1` [Example 18, Hydrobromide of (R)-2-amino-2-(1-(2-(4-chloro-[1,1′-biphenyl]-2-yl)ethyl)piperidin-4-yl)-1-(4-(2-(2,2-difluoroethoxy)-6-fluorobenzyl)piperazin-1-yl)ethan-1-one]: in the experiment on mexB (PA) strain, the “EC99, mexB (PA), AZT” value is listed as “B (25 μM<EC99≤100 μM)”; the “EC99, mexB (PA), LVFX” value is “B (25 μM<EC99≤100 μM)”; the “EC99, mexB (PA), TC” value is “B (25 μM<EC99≤100 μM)”. In addition, in the experiment with S-3769 strain, the “EC99, S-3769 strain, AMK” value is recorded as “A (12.5 μM<EC99≤25 μM)” and the “EC99, S-3769 strain, GM” value is on record as “A (12.5 μM<EC99≤25 μM)”.
On to `CCSc1cc(F)ccc1CN1CCN(C(=O)[C@H](N)C2CCN(CCc3cc(Cl)ccc3-c3cc(O)cc(Cl)c3)CC2)CC1` [Example 614, (R)-2-amino-2-(1-(2-(3′,4-dichloro-5′-hydroxy-[1,1′-biphenyl]-2-yl)ethyl)piperidin-4-yl)-1-(4-(2-(ethylthio)-4-fluorobenzyl)piperazin-1-yl)ethan-1-one], for which, in the experiment with mexB (PA) strain, the “EC99 … with AZT, mexB (PA)” value is on record as “S (EC99≤12.5 μM)”; the “EC99 … with LVFX, mexB (PA)” value is “S (EC99≤12.5 μM)”; the “EC99 … with TC, mexB (PA)” value was “S (EC99≤12.5 μM)”. Also, in the experiment with S-3769 strain, the “EC99, combinational effect with AMK” value is “S (EC99≤12.5 μM)” and the “EC99, combinational effect with GM” value is reported as “S (EC99≤12.5 μM)”.
Consider `CCSc1cc(F)ccc1CN1CCN(C(=O)[C@H](N)C2CCN(CCc3cc(Cl)ccc3-c3cc(N)cc(F)c3)CC2)CC1` [Example 606, Hydrochloride of (R)-2-amino-2-(1-(2-(3′-amino-4-chloro-5′-fluoro-[1,1-biphenyl]-2-yl)ethyl)piperidin-4-yl)-1-(4-(2-(ethylthio)-4-fluorobenzyl)piperazin-1-yl)ethan-1-one], for which, in the experiment with mexB (PA) strain, the “EC99 … with AZT, mexB (PA)” value is given as “S (EC99≤12.5 μM)”; the “EC99 … with LVFX, mexB (PA)” value is “S (EC99≤12.5 μM)”; the “EC99 … with TC, mexB (PA)” value is “S (EC99≤12.5 μM)”. In the experiment with S-3769 strain, the “EC99, combinational effect with AMK” value was “B (25 μM<EC99≤100 μM)” and the “EC99, combinational effect with GM” value is given as “B (25 μM<EC99≤100 μM)”.
Turning to `CCOc1cccc(F)c1CN1CCN(C(=O)[C@H](N)C2CCN(CCc3cc(Cl)ccc3-c3cc(O)cc(Cl)c3)CC2)CC1` [Example 584, (R)-2-amino-2-(1-(2-(3′,4-dichloro-5′-hydroxy-[1,1′-biphenyl]-2-yl)ethyl)piperidin-4-yl)-1-(4-(2-ethoxy-6-fluorobenzyl)piperazin-1-yl)ethan-1-one], in the experiment with mexB (PA) strain, the “EC99 … with AZT, mexB (PA)” value was “S (EC99≤12.5 μM)”; the “EC99 … with LVFX, mexB (PA)” value was “S (EC99≤12.5 μM)”; the “EC99 … with TC, mexB (PA)” value was “S (EC99≤12.5 μM)”. Besides, in the experiment on S-3769 strain, the “EC99, combinational effect with AMK” value is recorded as “S (EC99≤12.5 μM)” and the “EC99, combinational effect with GM” value is “S (EC99≤12.5 μM)”.
Regarding `CCOc1cccc(F)c1CN1CCN(C(=O)[C@H](N)C2CCN(CCc3cc(Cl)ccc3-c3cccc(N(C)C)c3)CC2)CC1` [Example 562, Hydrobromide of (R)-2-amino-2-(1-(2-(4-chloro-3′-(dimethylamino)-[1,1-biphenyl]-2-yl)ethyl)piperidin-4-yl)-1-(4-(2-ethoxy-6-fluorobenzyl)piperazin-1-yl)ethan-1-one], in the experiment on mexB (PA) strain, the “EC99 … with AZT, mexB (PA)” value is “A (12.5 μM<EC99≤25 μM)”; the “EC99 … with LVFX, mexB (PA)” value was “B (25 μM<EC99≤100 μM)”; the “EC99 … with TC, mexB (PA)” value is recorded as “B (25 μM<EC99≤100 μM)”. In the experiment with S-3769 strain, the “EC99, combinational effect with AMK” value is “S (EC99≤12.5 μM)” and the “EC99, combinational effect with GM” value is listed as “S (EC99≤12.5 μM)”.
Consider `N[C@@H](C(=O)N1CCN(Cc2cccc3c2CCCO3)CC1)C1CCN(CCc2cc(Cl)ccc2-c2ccccc2)CC1` [Example 515, Hydrobromide of (R)-2-amino-2-(1-(2-(4-chloro-[1,1-biphenyl]-2-yl)ethyl)piperidin-4-yl)-1-(4-(chroman-5-ylmethyl)piperazin-1-yl)ethan-1-one], for which, in the experiment on mexB (PA) strain, the “EC99 … with AZT, mexB (PA)” value was “B (25 μM<EC99≤100 μM)”; the “EC99 … with LVFX, mexB (PA)” value is reported as “B (25 μM<EC99≤100 μM)”; the “EC99 … with TC, mexB (PA)” value was “A (12.5 μM<EC99≤25 μM)”. In the experiment with S-3769 strain, the “EC99, combinational effect with AMK” value was “B (25 μM<EC99≤100 μM)” and the “EC99, combinational effect with GM” value is “B (25 μM<EC99≤100 μM)”.
